Test results from US20260199239A1, “IONIZABLE LIPIDS WITH MALONATE TAILS” (ModernaTX, Inc., priority 2022, published 2026).
“And” between values parts separate entries of the source, which are not always exact repeats. Equal values may be shown once.

What was measured:
[1] = LNP particle size and polydispersity index (PDI); assay type: physicochemical; conditions: LNP lipid:PEG-1:DSPC:Cholesterol 48:2:11:39, hEPO mRNA, 20 mM Tris 8% Sucrose pH 7.4
Method: A Zetasizer Nano ZS (Malvern Instruments Ltd, Malvern, Worcestershire, UK) can be used to determine the particle size, the polydispersity index (PDI) and the zeta potential of the nanoparticle compositions in 1×PBS in determining particle size and 15 mM PBS in determining zeta potential.
LNPs may be characterized by a variety of methods. For example, microscopy (e.g., transmission electron microscopy or scanning electron microscopy) may be used to examine the morphology and size distribution of a nanoparticle composition. Dynamic light scattering or potentiometry (e.g., potentiometric titrations) may be used to measure zeta potentials. Dynamic light scattering may also be utilized to determine particle sizes. Instruments such as the Zetasizer Nano ZS (Malvern Instruments Ltd, Malvern, Worcestershire, UK) may also be used to measure multiple characteristics of a nanoparticle composition, such as particle size, polydispersity index, and zeta potential.
(§1) LNPs comprising ionizable lipids described herein were formulated according to Table 2 and the following general procedure.
(§2) General procedure for one-pot LNP formation: Lipid stock solutions in ethanol are mixed with mRNA in 25 mM acetate solution at a 3:1 ratio in a microfluidic mixer. The resulting LNPs, which are at approximately pH 5 and 25% EtOH, are buffer exchanged by dialysis into the storage buffer. The LNP solutions are then concentrated by Amicon® and purified by a 0.2 uM sterile filter.

pH of LNP formulation = assay type: physicochemical; conditions: LNP formulation in 20 mM Tris 8% Sucrose storage buffer
From the text: as §1

[2] = Endotoxin content of LNP formulation; conditions: LNP lipid:PEG-1:DSPC:Cholesterol 48:2:11:39, hEPO mRNA
From the text: as §1

hEPO protein expression = hEPO protein expression in vivo after systemic administration of LNPs
Method: In order to monitor how effectively various nanoparticle compositions deliver therapeutic and/or prophylactic agents to targeted cells, different nanoparticle compositions including a particular therapeutic and/or prophylactic agent (for example, a modified or naturally occurring RNA such as an mRNA) are prepared and administered to animal populations. Animals (e.g., mice, rats, or non-human primates) are intravenously, intramuscularly, intraarterially, or intratumorally administered a single dose including a nanoparticle composition comprising a lipid of the disclosure and an mRNA expressing a protein, e.g., human erythropoietin (hEPO) or luciferase. A control composition including PBS may also be employed.
Upon administration of nanoparticle compositions to an animal, dose delivery profiles, dose responses, and toxicity of particular formulations and doses thereof can be measured by enzyme-linked immunosorbent assays (ELISA), bioluminescent imaging, or other methods. For nanoparticle compositions including mRNA, time courses of protein expression can also be evaluated. Samples collected from the animals for evaluation may include blood, sera, and tissue (for example, muscle tissue from the site of an intramuscular injection and internal tissue); sample collection may involve sacrifice of the animals.
ELISA test kits may provide hEPO concentrations in milli International Units per mL (mIU/mL), e.g., per mL of tested serum. Typically, the EPO concentration of unknown sample is calculated from a calibration curve. Standards (used for the calibration curve) are calibrated according to the 2. IRP WHO preparation. In some embodiments, mIU/mL corresponds to […]. Nanoparticle compositions including mRNA are useful in the evaluation of the efficacy and usefulness of various formulations for the delivery of therapeutic and/or prophylactic agents. Higher levels of protein expression induced by administration of a composition including an mRNA will be indicative of higher mRNA translation and/or nanoparticle composition mRNA delivery efficiencies. As the non-RNA components are not thought to affect translational machineries themselves, a higher level of protein expression is likely indicative of a higher efficiency of delivery of the therapeutic and/or prophylactic agent by a given nanoparticle composition relative to other nanoparticle compositions or the absence thereof.
In some embodiments, an in vivo expression assay may be used to assess potency of expression of lipids of the disclosure. In some embodiments, the protein expression (hEPO) may be measured in mice following administration of a nanoparticle comprising a lipid of the disclosure (e.g., a loaded LNP). In some embodiments, lipid nanoparticles of the instant disclosure may be intravenously administered to mice (e.g., CD-1 mice).
In some embodiments, the concentration of hEPO in serum may be tested after administration (e.g., about six hours after injection). In some embodiments, residual levels of the lipids of the disclosure in organs or tissue of the subject after administration (e.g., 6 h, 12 h, 18 h, 24 h, 36h, or 48 h after administration) are measured. In some embodiments, the residual levels of the lipids of the disclosure in the liver are measured. In some embodiments, an in vitro expression assay may be used to assess nanoparticles of the disclosure. In some embodiments, cells (e.g., HeLa) may be plated in an imaging plate (e.g., poly-D-lysine coated) and cultured in serum (e.g., human serum, mouse serum, cynomolgus monkey serum or fetal bovine serum). In some embodiments, lipid nanoparticles of the disclosure comprising an mRNA expressing fluorescent protein (e.g., green fluorescent protein (GFP)) and a fluorescent lipid (e.g., rhodamine-DOPE) may be added to the plate and the plate imaged for uptake and expression. In some embodiments, expression may be evaluated by measuring fluorescence (e.g., from GFP). […]

[3] = mRNA encapsulation by the LNP (% EE, total mRNA in TX); assay type: physicochemical; conditions: LNP lipid:PEG-1:DSPC:Cholesterol 48:2:11:39, hEPO mRNA
Method: For nanoparticle compositions including an RNA, a QUANT-IT™ RIBOGREEN® RNA assay (Invitrogen Corporation Carlsbad, CA) can be used to evaluate the encapsulation of an RNA by the nanoparticle composition. The samples are diluted to a concentration of approximately 5 μg/mL in a TE buffer solution (10 mM Tris-HCl, 1 mM EDTA, pH 7.5). 50 μL of the diluted samples are transferred to a polystyrene 96 well plate and either 50 μL of TE buffer or 50 μL of a 2% Triton X-100 solution is added to the wells. The plate is incubated at a temperature of 37° C. for 15 minutes. The RIBOGREEN® reagent is diluted 1:100 in TE buffer, and 100 μL of this solution is added to each well. The fluorescence intensity can be measured using a fluorescence plate reader (Wallac Victor 1420 Multilablel Counter; Perkin Elmer, Waltham, MA) at an excitation wavelength of, for example, about 480 nm and an emission wavelength of, for example, about 520 nm. The fluorescence values of the reagent blank are subtracted from that of each of the samples and the percentage of free RNA is determined by dividing the fluorescence intensity of the intact sample (without addition of Triton X-100) by the fluorescence value of the disrupted sample (caused by the addition of Triton X-100).
The efficiency of encapsulation of a therapeutic and/or prophylactic agent describes the amount of therapeutic and/or prophylactic agent that is encapsulated or otherwise associated with an LNP after preparation, relative to the initial amount provided. The encapsulation efficiency is desired to be high (e.g., close to 100%). The encapsulation efficiency may be measured, for example, by comparing the amount of therapeutic and/or prophylactic agent in a solution containing a loaded LNP before and after breaking up the loaded LNP with one or more organic solvents or detergents. Fluorescence may be used to measure the amount of free therapeutic and/or prophylactic agent (e.g., RNA) in a solution. For the loaded LNPs formulated with lipids of the disclosure, the encapsulation efficiency of a therapeutic and/or prophylactic agent is at least 50%, for example 50%, 55%, 60%, 65%, 70%, 75%, 80%, 85%, 90%, 91%, 92%, 93%, 94%, 95%, 96%, 97%, 98%, 99%, or 100%. In some embodiments, the encapsulation efficiency is at least 80%. In some embodiments, the encapsulation efficiency is at least 90%. In some embodiments, the encapsulation efficiency of the therapeutic and/or prophylactic agent is between 80% and 100%.
as §1, §2

[4] = Osmolality of LNP formulation; assay type: physicochemical; conditions: LNP formulation in 20 mM Tris 8% Sucrose storage buffer
From the text: as §1

[5] = Table 3A groups 1-8, ratio to L5 LNP
[6] = Table 3B groups 1A-8A, ratio to L5 LNP

CCCCCCCCC(CCCCCCCC)OC(=O)CCCCCCCN(CCCCCCC(C(=O)OCCCCCC)C(=O)OCCCCCC)CCCNc1c(NC)c(=O)c1=O [Compound M3, Dihexyl 2-(6-((8-(heptadecan-9-yloxy)-8-oxooctyl)(3-((2-(methylamino)-3,4-dioxocyclobut-1-en-1-yl)amino)propyl)amino)hexyl)malonate]
PDI [1]: 0.148 and 0.132 | Size (nm) [1]: 59.3 nm and 59.1 nm | pH (pH of LNP formulation): 7.155 | Endotoxin (EU/mL) [2]: 2 EU/mL | 6 hr protein expression ratio cf. L5 (hEPO protein expression; [5]): 1.0 | 6 hr protein expression ratio cf. L5 (hEPO protein expression; [6]): 2.53 | 24 hr protein expression ratio cf. L5 (hEPO protein expression; [5]): 1.2 | 24 hr protein expression ratio cf. L5 (hEPO protein expression; [6]): 2.42 | % EE [3]: 97.8% and 98.3% | Osmolality (mOsm/kg) [4]: 317 mOsm/kg and 318 mOsm/kg

CCCCCCCCC(CCCCCCCC)OC(=O)CCCCCCCN(CCO)CCCCCCC(C(=O)OCCCCCC)C(=O)OCCCCCC [Compound M1, Dihexyl 2-(6-((8-(heptadecan-9-yloxy)-8-oxooctyl)(2-hydroxyethyl)amino)hexyl)malonate]
PDI [1]: 0.164 and 0.128 | Size (nm) [1]: 57.0 nm and 58.7 nm | pH (pH of LNP formulation): 7.452 | Endotoxin (EU/mL) [2]: 2.4 EU/mL | 6 hr protein expression ratio cf. L5 (hEPO protein expression; [5]): 0.9 | 6 hr protein expression ratio cf. L5 (hEPO protein expression; [6]): 1.70 | 24 hr protein expression ratio cf. L5 (hEPO protein expression; [5]): 0.9 | 24 hr protein expression ratio cf. L5 (hEPO protein expression; [6]): 1.46 | % EE [3]: 96.9% and 94.1% | Osmolality (mOsm/kg) [4]: 314 mOsm/kg and 320 mOsm/kg

CCCCCCCCC(CCCCCCCC)OC(=O)CCCCCCCN(CCO)CCCCCCCC(=O)OCCC(CCCC)CCCC [Compound L6, reference compound]
PDI [1]: 0.166 | Size (nm) [1]: 58.2 nm | pH (pH of LNP formulation): 7.468 | Endotoxin (EU/mL) [2]: 2.3 EU/mL | 6 hr protein expression ratio cf. L5 (hEPO protein expression; [6]): 0.94 | 24 hr protein expression ratio cf. L5 (hEPO protein expression; [6]): 0.84 | % EE [3]: 96.9% | Osmolality (mOsm/kg) [4]: 321 mOsm/kg
